Key:
Type in all cases: in vivo
[1] = tested on: Amaranthus retoflexus (AMARE); assay: Pre-emergence Test (glasshouse, percentage damage to the plant); conditions: 1000 g/ha unless otherwise stated; for percentage damage to the plant, AMARE (five-point scale): Amaranthus retoflexus; for percentage damage to the plant, AMARE: five-point scale
Setaria faberi (SETFA) [2] = assay: as above; conditions: 1000 g/ha unless otherwise stated; for percentage damage to the plant, SETFA (five-point scale): Setaria faberi; for percentage damage to the plant, SETFA: five-point scale
Setaria faberi (SETFA) [3] = assay: Post-emergence Test (glasshouse, percentage damage to the plant); conditions: 1000 g/ha unless otherwise stated, evaluated after 13 days; for SETFA, percentage damage caused to the plant (five-point scale): post-emergence; for Post-emergence Test SETFA, percentage damage to the plant (five-point scale): post-emergence spray
Summary of the method: (§1)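 Seeds are sown in standard soil under controlled glasshouse conditions. The pots are then sprayed at 1000 g/ha, unless otherwise stated, with compound in acetone/water (50:50) containing 0.5% Tween 20. After 13 days further growth, percentage plant damage is scored from 1 (0-20%) to 5 (81-100%).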

Zea mays (ZEAMX) [4] = assay: as above; conditions: 1000 g/ha unless otherwise stated, evaluated after 13 days; for ZEAMX, percentage damage caused to the plant (five-point scale): post-emergence; for Post-emergence Test ZEAMX, percentage damage to the plant (five-point scale): post-emergence spray
Summary of the method: as §1

[5] = tested on: Amaranthus retoflexus (AMARE); assay: as above; conditions: 1000 g/ha unless otherwise stated, evaluated after 13 days; for AMARE, percentage damage caused to the plant (five-point scale): post-emergence; for Post-emergence Test AMARE, percentage damage to the plant (five-point scale): post-emergence spray
Summary of the method: (§2)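 Compound formulated in 50:50 acetone/water with 0.5% Tween 20 was diluted to an aqueous spray and applied at 1000 g/ha, unless otherwise stated, onto sown pots. Evaluation after 13 days gave percentage damage, banded into a 1–5 score.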

[6] = tested on: Ipomoea hederacea (IPOHE); assay: as above; conditions: 1000 g/ha unless otherwise stated, evaluated after 13 days; for IPOHE, percentage damage caused to the plant (five-point scale): post-emergence; for Post-emergence Test IPOHE, percentage damage to the plant (five-point scale): post-emergence spray
Summary of the method: as §1

[7] = tested on: Echinochloa crus-galli (ECHCG); assay: as above; conditions: 1000 g/ha unless otherwise stated, evaluated after 13 days; for ECHCG, percentage damage caused to the plant (five-point scale): post-emergence; for Post-emergence Test ECHCG, percentage damage to the plant (five-point scale): post-emergence spray
Summary of the method: as §2

[8] = tested on: Echinochloa crus-galli (ECHCG); assay: Pre-emergence Test (glasshouse, percentage damage to the plant); conditions: 1000 g/ha unless otherwise stated; for percentage damage to the plant, ECHCG (five-point scale): Echinochloa crus-galli; for percentage damage to the plant, ECHCG: five-point scale
[9] = tested on: Abutilon theophrasti (ABUTH); assay: as above; conditions: 1000 g/ha unless otherwise stated; for percentage damage to the plant, ABUTH (five-point scale): Abutilon theophrasti; for percentage damage to the plant, ABUTH: five-point scale
Zea mays (ZEAMX) [10] = assay: as above; conditions: 1000 g/ha unless otherwise stated; for percentage damage to the plant, ZEAMX (five-point scale): Zea mays; for percentage damage to the plant, ZEAMX: five-point scale
[11] = tested on: Ipomoea hederacea (IPOHE); assay: as above; conditions: 1000 g/ha unless otherwise stated; for percentage damage to the plant, IPOHE (five-point scale): Ipomoea hederacea; for percentage damage to the plant, IPOHE: five-point scale
[12] = tested on: Abutilon theophrasti (ABUTH); assay: Post-emergence Test (glasshouse, percentage damage to the plant); conditions: post-emergence; 1000 g/ha unless otherwise stated; evaluated after 13 days
Summary of the method: as §2

## CCn1c(C)c(-c2cccc(C(F)(F)F)n2)c(=O)c(C(=O)O)c1-c1ccc(Cl)c(Cl)c1 [Compound 217, 2-(3,4-dichlorophenyl)-1-ethyl-6-methyl-4-oxo-5-[6-(trifluoromethyl)-2-pyridyl]pyridine-3-carboxylic acid]
[1]
  percentage damage to the plant, AMARE (five-point scale): 0
Setaria faberi (SETFA) [2]
  percentage damage to the plant, SETFA (five-point scale): 2 (2=21-40%)
Setaria faberi (SETFA) [3]
  SETFA, percentage damage caused to the plant (five-point scale): 2 (2=21-40%)
Zea mays (ZEAMX) [4]
  ZEAMX, percentage damage caused to the plant (five-point scale): 0
[5]
  AMARE, percentage damage caused to the plant (five-point scale): 0
[6]
  IPOHE, percentage damage caused to the plant (five-point scale): 3 (3=41-60%)
[7]
  ECHCG, percentage damage caused to the plant (five-point scale): 1 (1=0-20%)
[8]
  percentage damage to the plant, ECHCG (five-point scale): 1 (1=0-20%)
[9]
  percentage damage to the plant, ABUTH (five-point scale): 3 (3=41-60%)
Zea mays (ZEAMX) [10]
  percentage damage to the plant, ZEAMX (five-point scale): 1 (1=0-20%)
[11]
  percentage damage to the plant, IPOHE (five-point scale): 3 (3=41-60%)

## CCn1c(C)c(-c2cc(F)ccc2Cl)c(=O)c(C(=O)O)c1-c1ccc(Cl)cc1 [Compound 175, 5-(2-chloro-5-fluoro-phenyl)-2-(4-chlorophenyl)-1-ethyl-6-methyl-4-oxo-pyridine-3-carboxylic acid]
[1]
  percentage damage to the plant, AMARE: 0
Setaria faberi (SETFA) [2]
  percentage damage to the plant, SETFA: 2 (2=21-40%)
Setaria faberi (SETFA) [3]
  Post-emergence Test SETFA, percentage damage to the plant (five-point scale): 3 (3=41-60%)
Zea mays (ZEAMX) [4]
  Post-emergence Test ZEAMX, percentage damage to the plant (five-point scale): 1 (1=0-20%)
[5]
  Post-emergence Test AMARE, percentage damage to the plant (five-point scale): 1 (1=0-20%)
[6]
  Post-emergence Test IPOHE, percentage damage to the plant (five-point scale): 3 (3=41-60%)
[7]
  Post-emergence Test ECHCG, percentage damage to the plant (five-point scale): 2 (2=21-40%)
[8]
  percentage damage to the plant, ECHCG: 1 (1=0-20%)
[9]
  percentage damage to the plant, ABUTH: 0
Zea mays (ZEAMX) [10]
  percentage damage to the plant, ZEAMX: 1 (1=0-20%)
[11]
  percentage damage to the plant, IPOHE: 3 (3=41-60%)

## CCn1c(C)c(-c2cc(C)c(F)c(C)c2)c(=O)c(C(=O)O)c1-c1ccc(Cl)cc1 [Compound 173, 2-(4-chlorophenyl)-1-ethyl-5-(4-fluoro-3,5-dimethyl-phenyl)-6-methyl-4-oxo-pyridine-3-carboxylic acid]
[1]
  percentage damage to the plant, AMARE: 0
Setaria faberi (SETFA) [2]
  percentage damage to the plant, SETFA: 0
Setaria faberi (SETFA) [3]
  Post-emergence Test SETFA, percentage damage to the plant (five-point scale): 2 (2=21-40%)
Zea mays (ZEAMX) [4]
  Post-emergence Test ZEAMX, percentage damage to the plant (five-point scale): 2 (2=21-40%)
[5]
  Post-emergence Test AMARE, percentage damage to the plant (five-point scale): 3 (3=41-60%)
[6]
  Post-emergence Test IPOHE, percentage damage to the plant (five-point scale): 3 (3=41-60%)
[7]
  Post-emergence Test ECHCG, percentage damage to the plant (five-point scale): 1 (1=0-20%)
[8]
  percentage damage to the plant, ECHCG: 0
[9]
  percentage damage to the plant, ABUTH: 0
Zea mays (ZEAMX) [10]
  percentage damage to the plant, ZEAMX: 0
[11]
  percentage damage to the plant, IPOHE: 0

## CCn1c(C)c(-c2cccc(OC)c2F)c(=O)c(C(=O)O)c1-c1ccc(Cl)cc1 [Compound 179, 2-(4-chlorophenyl)-1-ethyl-5-(2-fluoro-3-methoxy-phenyl)-6-methyl-4-oxo-pyridine-3-carboxylic acid]
[1]
  percentage damage to the plant, AMARE: 1 (1=0-20%)
Setaria faberi (SETFA) [2]
  percentage damage to the plant, SETFA: 1 (1=0-20%)
Setaria faberi (SETFA) [3]
  Post-emergence Test SETFA, percentage damage to the plant (five-point scale): 3 (3=41-60%)
Zea mays (ZEAMX) [4]
  Post-emergence Test ZEAMX, percentage damage to the plant (five-point scale): 1 (1=0-20%)
[5]
  Post-emergence Test AMARE, percentage damage to the plant (five-point scale): 2 (2=21-40%)
[6]
  Post-emergence Test IPOHE, percentage damage to the plant (five-point scale): 3 (3=41-60%)
[7]
  Post-emergence Test ECHCG, percentage damage to the plant (five-point scale): 2 (2=21-40%)
[8]
  percentage damage to the plant, ECHCG: 1 (1=0-20%)
[9]
  percentage damage to the plant, ABUTH: 3 (3=41-60%)
Zea mays (ZEAMX) [10]
  percentage damage to the plant, ZEAMX: 0
[11]
  percentage damage to the plant, IPOHE: 3 (3=41-60%)

## CCn1c(CCOC)c(-c2ccc(Cl)cc2)c(=O)c(C(=O)O)c1-c1ccc(Cl)c(Cl)c1 [Compound 203, 5-(4-chlorophenyl)-2-(3,4-dichlorophenyl)-1-ethyl-6-(2-methoxyethyl)-4-oxo-pyridine-3-carboxylic acid]
[1]
  percentage damage to the plant, AMARE (five-point scale): 0
Setaria faberi (SETFA) [2]
  percentage damage to the plant, SETFA (five-point scale): 0
Setaria faberi (SETFA) [3]
  SETFA, percentage damage caused to the plant (five-point scale): 0
Zea mays (ZEAMX) [4]
  ZEAMX, percentage damage caused to the plant (five-point scale): 1 (1=0-20%)
[5]
  AMARE, percentage damage caused to the plant (five-point scale): 0
[6]
  IPOHE, percentage damage caused to the plant (five-point scale): 0
[12]
  ABUTH, percentage damage caused to the plant (five-point scale): 0
[8]
  percentage damage to the plant, ECHCG (five-point scale): 1 (1=0-20%)
Zea mays (ZEAMX) [10]
  percentage damage to the plant, ZEAMX (five-point scale): 0
[11]
  percentage damage to the plant, IPOHE (five-point scale): 0

## CCn1c(C)c(-c2cc(Cl)c(F)c(Cl)c2)c(=O)c(C(=O)O)c1-c1ccc(Cl)cc1 [Compound 178, 2-(4-chlorophenyl)-5-(3,5-dichloro-4-fluoro-phenyl)-1-ethyl-6-methyl-4-oxo-pyridine-3-carboxylic acid]
[1]
  percentage damage to the plant, AMARE: 0
Setaria faberi (SETFA) [2]
  percentage damage to the plant, SETFA: 0
Setaria faberi (SETFA) [3]
  Post-emergence Test SETFA, percentage damage to the plant (five-point scale): 0
Zea mays (ZEAMX) [4]
  Post-emergence Test ZEAMX, percentage damage to the plant (five-point scale): 1 (1=0-20%)
[5]
  Post-emergence Test AMARE, percentage damage to the plant (five-point scale): 1 (1=0-20%)
[6]
  Post-emergence Test IPOHE, percentage damage to the plant (five-point scale): 1 (1=0-20%)
[7]
  Post-emergence Test ECHCG, percentage damage to the plant (five-point scale): 1 (1=0-20%)
[8]
  percentage damage to the plant, ECHCG: 0
[9]
  percentage damage to the plant, ABUTH: 0
Zea mays (ZEAMX) [10]
  percentage damage to the plant, ZEAMX: 0
[11]
  percentage damage to the plant, IPOHE: 0

## CCn1c(C)c(-c2ccc(C#N)cc2)c(=O)c(C(=O)O)c1-c1ccc(Cl)cc1 [Compound 198, 2-(4-chlorophenyl)-5-(4-cyanophenyl)-1-ethyl-6-methyl-4-oxo-pyridine-3-carboxylic acid]
[1]
  percentage damage to the plant, AMARE (five-point scale): 0
Setaria faberi (SETFA) [2]
  percentage damage to the plant, SETFA (five-point scale): 0
Setaria faberi (SETFA) [3]
  SETFA, percentage damage caused to the plant (five-point scale): 2 (2=21-40%)
Zea mays (ZEAMX) [4]
  ZEAMX, percentage damage caused to the plant (five-point scale): 1 (1=0-20%)
[5]
  AMARE, percentage damage caused to the plant (five-point scale): 2 (2=21-40%)
[6]
  IPOHE, percentage damage caused to the plant (five-point scale): 1 (1=0-20%)
[7]
  ECHCG, percentage damage caused to the plant (five-point scale): 1 (1=0-20%)
[8]
  percentage damage to the plant, ECHCG (five-point scale): 0
[9]
  percentage damage to the plant, ABUTH (five-point scale): 0
Zea mays (ZEAMX) [10]
  percentage damage to the plant, ZEAMX (five-point scale): 0
[11]
  percentage damage to the plant, IPOHE (five-point scale): 1 (1=0-20%)

## CCn1c(C)c(-c2ccc(F)c(C#N)c2)c(=O)c(C(=O)O)c1-c1ccc(Cl)cc1 [Compound 174, 2-(4-chlorophenyl)-5-(3-cyano-4-fluoro-phenyl)-1-ethyl-6-methyl-4-oxo-pyridine-3-carboxylic acid]
[1]
  percentage damage to the plant, AMARE: 1 (1=0-20%)
Setaria faberi (SETFA) [2]
  percentage damage to the plant, SETFA: 2 (2=21-40%)
Setaria faberi (SETFA) [3]
  Post-emergence Test SETFA, percentage damage to the plant (five-point scale): 3 (3=41-60%)
Zea mays (ZEAMX) [4]
  Post-emergence Test ZEAMX, percentage damage to the plant (five-point scale): 1 (1=0-20%)
[5]
  Post-emergence Test AMARE, percentage damage to the plant (five-point scale): 2 (2=21-40%)
[6]
  Post-emergence Test IPOHE, percentage damage to the plant (five-point scale): 4 (4=61-80%)
[7]
  Post-emergence Test ECHCG, percentage damage to the plant (five-point scale): 2 (2=21-40%)
[8]
  percentage damage to the plant, ECHCG: 3 (3=41-60%)
[9]
  percentage damage to the plant, ABUTH: 1 (1=0-20%)
Zea mays (ZEAMX) [10]
  percentage damage to the plant, ZEAMX: 1 (1=0-20%)
[11]
  percentage damage to the plant, IPOHE: 1 (1=0-20%)

From patent publication US12660819B2, “Herbicidal derivatives” (SYNGENTA CROP PROTECTION AG, priority 2020, dated 2026)
